From the supplement of paper PMC10307832

Assays:
Test in all cases: relative viability (nuclei count vs DMSO), 5 days (fraction); higher = more cells survive
Bosutinib + Luminespib = compound: COc1cc(Nc2c(C#N)cnc3cc(OCCCN4CCN(C)CC4)c(OC)cc23)c(Cl)cc1Cl [Bosutinib] + CCNC(=O)c1noc(-c2cc(C(C)C)c(O)cc2O)c1-c1ccc(CN2CCOCC2)cc1 [Luminespib] (partner 0.01 µM)
Summary of the method: (§1)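 Relative viability divides the nuclei count in treated wells by that in vehicle wells. Lung cancer cell lines were seeded in 1536-well plates, dosed by pin tool the next day, and fixed and stained after 5 days in one step with final 0.05% Triton X-100, 1% formaldehyde and 1 ug/ml Hoechst. Dosing was a single drug or a fixed anchor-drug dose plus five library-drug doses (not always all listed) in √10 steps, and values are medians of duplicate plates imaged at 4×.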

Bosutinib + AZD7762 = compound: COc1cc(Nc2c(C#N)cnc3cc(OCCCN4CCN(C)CC4)c(OC)cc23)c(Cl)cc1Cl [Bosutinib] + NC(=O)Nc1cc(-c2cccc(F)c2)sc1C(=O)N[C@H]1CCCNC1 [AZD7762] (partner 0.2 µM)
Summary of the method: as §1

Bosutinib + Trametinib = compound: COc1cc(Nc2c(C#N)cnc3cc(OCCCN4CCN(C)CC4)c(OC)cc23)c(Cl)cc1Cl [Bosutinib] + CC(=O)Nc1cccc(-n2c(=O)n(C3CC3)c(=O)c3c(Nc4ccc(I)cc4F)n(C)c(=O)c(C)c32)c1 [Trametinib] (partner 0.02 µM)
Summary of the method: as §1

Bosutinib + Vorinostat = compound: COc1cc(Nc2c(C#N)cnc3cc(OCCCN4CCN(C)CC4)c(OC)cc23)c(Cl)cc1Cl [Bosutinib] + O=C(CCCCCCC(=O)Nc1ccccc1)NO [Vorinostat] (partner 1 µM)
Summary of the method: as §1

Bosutinib + OSI-027 = compound: COc1cc(Nc2c(C#N)cnc3cc(OCCCN4CCN(C)CC4)c(OC)cc23)c(Cl)cc1Cl [Bosutinib] + COc1cccc2cc(-c3nc([C@H]4CC[C@H](C(=O)O)CC4)n4ncnc(N)c34)[nH]c12 [OSI-027] (partner 0.5 µM)
Summary of the method: as §1

| Cell Line | relative viability (Bosutinib + Luminespib; first compound 0.01 µM) | relative viability (Bosutinib + Luminespib; first compound 0.03162 µM) | relative viability (Bosutinib + Luminespib; first compound 0.1 µM) | relative viability (Bosutinib + Luminespib; first compound 1 µM) | relative viability (Bosutinib + AZD7762; first compound 0.01 µM) | relative viability (Bosutinib + AZD7762; first compound 0.03162 µM) | relative viability (Bosutinib + AZD7762; first compound 0.1 µM) | relative viability (Bosutinib + AZD7762; first compound 1 µM) | relative viability (Bosutinib + Trametinib; first compound 0.01 µM) | relative viability (Bosutinib + Trametinib; first compound 0.03162 µM) | relative viability (Bosutinib + Trametinib; first compound 0.1 µM) | relative viability (Bosutinib + Trametinib; first compound 1 µM) | relative viability (Bosutinib + Vorinostat; first compound 0.01 µM) | relative viability (Bosutinib + Vorinostat; first compound 0.03162 µM) | relative viability (Bosutinib + Vorinostat; first compound 0.1 µM) | relative viability (Bosutinib + Vorinostat; first compound 1 µM) | relative viability (Bosutinib + OSI-027; first compound 0.01 µM) | relative viability (Bosutinib + OSI-027; first compound 0.03162 µM) | relative viability (Bosutinib + OSI-027; first compound 0.1 µM) | relative viability (Bosutinib + OSI-027; first compound 1 µM) |
| --- | --- | --- | --- | --- | --- | --- | --- | --- | --- | --- | --- | --- | --- | --- | --- | --- | --- | --- | --- | --- |
| NCI-H2342 | 0.587 | 0.714 | 0.694 | 0.666 | 0.445 | 0.553 | 0.459 | 0.55 | 0.706 | 0.703 | 0.856 | 1.1 | 0.779 | 0.787 | 0.859 | 0.828 | 0.634 | 0.669 | 0.702 | 0.718 |
| NCI-H2347 | 0.39 | 0.507 | 0.472 | 0.266 | 0.748 | 0.725 | 0.777 | 0.487 | 0.309 | 0.27 | 0.297 | 0.307 | 0.461 | 0.579 | 0.654 | 0.543 | 0.347 | 0.436 | 0.436 | 0.385 |
| NCI-H2405 | 0.661 | 0.645 | 0.696 | 0.439 | 0.873 | 0.739 | 0.701 | 0.598 | 0.659 | 0.653 | 0.605 | 0.396 | 1.04 | 1.33 | 1.39 | 0.766 | 0.634 | 0.619 | 0.615 | 0.629 |
| NCI-H3122 | 0.0649 | 0.0933 | 0.104 | 0.104 | 1.01 | 0.884 | 0.947 | 0.975 | 0.203 | 0.273 | 0.205 | 0.256 | 0.991 | 0.917 | 0.967 | 0.953 | 1.05 | 1.04 | 1.03 | 1.17 |
| PC-3 [JPC-3] | 0.679 | 0.835 | 0.685 | 0.569 | 0.787 | 0.738 | 0.689 | 0.641 | 0.725 | 0.691 | 0.647 | 0.467 | 0.853 | 0.983 | 0.918 | 0.541 | 0.812 | 0.685 | 0.745 | 0.54 |
| PC-14 | 0.109 | 0.394 | 0.126 | 0.16 | 0.351 | 0.284 | 0.287 | 0.193 | 0.721 | 0.675 | 0.491 | 0.13 | 0.783 | 0.694 | 0.673 | 0.126 | 0.961 | 0.688 | 0.773 | 0.192 |
| RERF-LC-KJ | 1.22 | 1.21 | 1.18 | 1.15 | 0.979 | 0.982 | 1.07 | 0.877 | 0.733 | 0.809 | 0.902 | 0.826 | 0.691 | 0.705 | 0.733 | 0.811 | 0.594 | 0.59 | 0.607 | 0.473 |
| SW 900 | 0.154 | – | 0.183 | 0.15 | 0.624 | 0.589 | 0.581 | 0.482 | 0.809 | 0.674 | 0.784 | 0.61 | 0.605 | 0.531 | 0.671 | 0.409 | 0.51 | – | 0.591 | 0.455 |
